Results: ChEMBL document CHEMBL1759989, “Synthesis and evaluation of thiophenyl derivatives as inhibitors of alkaline phosphatase” (Bioorg Med Chem Lett, 2011)
Where a name gives a salt, the structure may show the parent alone.

Key:
[1] = Inhibition of pig TNAP at pH 10.4 by UV-visible spectrophotometric assay; parameters: species or system Sus scrofa
[2] = Inhibition of pig TNAP at pH 7.8 by UV-visible spectrophotometric assay; parameters: species or system Sus scrofa

Row | Structure (SMILES) | IC50 [1] | IC50 [2]
1 | c1cc(-c2cn3ccsc3n2)cs1 | > 800 µM | > 800 µM
2 | c1cc(-c2cn3c(n2)SCC3)cs1 | > 800 µM | > 800 µM
3 | C1=C(c2ccsc2)N2CCN=C2S1 | > 800 µM | > 800 µM
4 | c1cc(C2CN3CCSC3=N2)cs1 (racemic) | 408 µM | 192 µM
5 | c1csc(C2CN3CCSC3=N2)c1 (racemic) | > 800 µM | > 800 µM
6 | c1ccc([C@H]2CN3CCSC3=N2)cc1 [LEVAMISOLE HYDROCHLORIDE] | 93 µM | 78 µM

Second part, the compound after the results:

Row | IC50 [1] | IC50 [2] | Structure (SMILES)
7 | 42 µM | 84 µM | C1=CN2CC(c3ccsc3)N=C2S1 (racemic)
8 | 331 µM | 260 µM | C1=CN2CC(c3cccs3)N=C2S1 (racemic)
